Data set [1] concerns S5 cells. The data set is described as follows: High throughput screen: ATP level (viable cells) in S5 cells with reduced SMN. Type of data set: cell-based, chicken. Conditions: for EC50 / Emax: Gallus gallus, S5 cells, 18 ng/ml tet, 0.5 to 20 μM; for EC50: ATP level, read-out: EC50 (effective concentration for half maximum activity); for Emax: percentage increase of ATP level relative to cells treated with DMSO only, read-out: Maximum Activity (%). The method, then: In the SMN conditional knockout cell line, S5, the endogenous smn gene is disrupted by homologous recombination, and the SMN protein is stably expressed from an SMN cDNA under the control of a tetracycline (tet)-repressible promoter (Wang and Dreyfuss (2001) supra).
Libraries of compounds were screened against the S5 cell line. […] The cells were incubated for an additional 72 hours and the number of viable cells in each well was determined by measuring the ATP level in the cell lysate, a sensitive assay commonly used to assess cell viability in HTS (Crouch, et al. (1993) J. Immunol. Methods 160:81-88). […] Activity of the compounds was measured as the difference between the sample and the average of the controls.
(§1) The activities of all compounds were further examined at concentrations ranging from 0.5 to 20 μM. […] The activity of each compound was determined as a percentage increase of the ATP level, reflecting the number of viable cells, relative to cells treated with an equal volume of DMSO only.
The chicken pre-B cell line DT40, the smn conditional knockout cell line S5 and the asf/sf2 conditional knockout cell line ASF-DT40 (Wang, et al. (1996) supra) were maintained using known methods (Wang and Dreyfuss (2001) supra). To reduce the SMN level, S5 cells were incubated with 18 ng/ml tetracycline hydrochloride (tet). Similarly, ASF-DT40 cells were treated with 14 ng/ml tet to partially deplete the ASF/SF2 protein.
After being incubated in medium containing 18 ng/ml tet for 24 hours, S5 cells were dispensed into 96-well plates at 120 μl per well. Compounds were added to these cells by pipetting 0.4 μl of the 3 mM libraries into each well to reach a final concentration of 10 μM. The 96-well plates were further incubated for 72 hours at 37° C. with 5% CO2. […] Luminescence was read on a Wallac Victor2 multi-channel plate reader (Perkin-Elmer, Boston, Mass.). The cellular ATP level is a direct measure of the number of viable cells in each well (Crouch, et al. (1993) supra). Data from luminescence readings were analyzed with MICROSOFT® Excel.

Data set [2] relates to S5 cells. As to conditions: for highest concentration at which there is no apparent cell toxicity: S5 cells. On the procedure: as §1
SMN protein levels were also determined. Total cell lysates from treated cells were prepared and analyzed by immunoblotting with an anti-SMN antibody. […] The same blots were probed with antibodies against two other abundant proteins, Y14^10 and β-tubulin, to provide an internal control for the amount of cell lysate loaded on the gel.

Data set [3] deals with S5 cells. The data set is described as follows: Cell number determination in S5 cells cultured with 18 ng/ml tet. In kind it is cell-based, chicken. Conditions: after 96 hours. On the procedure:
To determine an accurate measure of the number of viable cells, cell numbers were also determined.

Setting [4] is: high-throughput screening system.

Regarding `Clc1ccc(C(c2ccc(Cl)cc2)n2cc[n+](CC(OCc3ccc(Cl)cc3Cl)c3ccc(Cl)cc3Cl)c2)cc1` (centres unmarked) [Calmidazolium, reference compound], in the data set with S5 cells [1] (setting [4]), the “concentration improving growth of S5 cells (as low as)” value worked out at 215 nM and the “growth of S5 cells” value was “improved the growth of S5 cells”.

Take `CN(C)CCC=C1c2ccccc2CCc2ccccc21` [Compound 1]: in the data set with S5 cells [1], the EC50 came to 3 µM and the Emax worked out at 30%.

As for `CNCCCN1c2ccccc2CCc2ccccc21` [Compound 2], in the data set with S5 cells [1], the EC50 was determined as 3 µM and the Emax came to 30%.

With `CN(C)CC/C=C1/c2ccccc2COc2ccccc21` [Compound 3], in the data set with S5 cells [1], the EC50 was found to be 5 µM and the Emax was determined as 60%.

In the case of `CN(C)CCCN1c2ccccc2CCc2ccccc21` [Compound 4], in the data set on S5 cells [1], the EC50 was found to be 4 µM and the Emax turned out to be 35%.

Consider `CN1CCN2c3ccccc3Cc3ccccc3C2C1` (centres unmarked) [Compound 5], for which, in the data set on S5 cells [1], the EC50 was determined as 5 µM and the Emax was 75%. Moreover, the cell toxicity result with S5 cells [2] is recorded as “low cell toxicity”.

On to `CC(CN(C)C)CN1c2ccccc2CCc2ccccc21` (centres unmarked) [Compound 6], for which, in the data set with S5 cells [1], the EC50 was 2.5 µM and the Emax amounted to 50%.

`CN(C)CCC=C1c2ccccc2C=Cc2ccccc21` [Compound 7]: in the data set on S5 cells [1], the EC50 amounted to 3 µM and the Emax came out at 45%.

Turning to `CSc1ccc2c(c1)C(N1CCN(C)CC1)Cc1ccccc1S2` (centres unmarked) [Compound 8], in the data set on S5 cells [1], the EC50 is less than 1 µM and the Emax came out at 25%.

`CN(C)CCCN1c2ccccc2CCc2ccc(Cl)cc21` [Compound 9]: in the data set with S5 cells [1], the EC50 worked out at 1.5 µM and the Emax is 50%.

As to `CN1CCN(C2=Nc3cc(Cl)ccc3Nc3ccccc32)CC1` [Compound 10], in the data set on S5 cells [1], the EC50 was 3 µM and the Emax turned out to be 30%.

On to `CN(C)CCCN1c2ccccc2Sc2ccccc21` [Compound 11], for which, in the data set with S5 cells [1], the EC50 was 2.5 µM and the Emax was 60%.

`CC(CN1c2ccccc2Sc2ccccc21)N(C)C` (centres unmarked) [Compound 12]: in the data set on S5 cells [1], the EC50 amounted to 2.5 µM and the Emax worked out at 75%. For the same compound, the “increase in cell number over control cells treated with DMSO alone” value with S5 cells [3] is “three to four-fold increase in cell number”.

With `CC(CN(C)C)CN1c2ccccc2Sc2ccccc21` (centres unmarked) [Compound 14], in the data set on S5 cells [1], the EC50 was found to be 2.5 µM and the Emax stood at 40%.

As for `CCN(CC)C(C)CN1c2ccccc2Sc2ccccc21` (centres unmarked) [Compound 15], in the data set with S5 cells [1], the EC50 was determined as 2 µM and the Emax was determined as 70%.

Regarding `CCC(=O)c1ccc2c(c1)N(CC(C)N(C)C)c1ccccc1S2` (centres unmarked) [Compound 16], in the data set with S5 cells [1], the EC50 was 1 µM and the Emax was 60%. Further, in the data set with S5 cells [2], the “highest concentration at which there is no apparent cell toxicity” value was 4 µM.

In the case of `CSc1ccc2c(c1)N(CCC1CCCCN1C)c1ccccc1S2` (centres unmarked) [Compound 17], in the data set on S5 cells [1], the EC50 was 1.5 µM and the Emax stood at 80%. Besides, the “increase in cell number over control cells treated with DMSO alone” value with S5 cells [3] is given as “three to four-fold increase in cell number”. Moreover, the “highest concentration at which there is no apparent cell toxicity” value in the data set on S5 cells [2] is 4 µM.

For `CN(C)CCCN1c2ccccc2Sc2ccc(C(F)(F)F)cc21` [Compound 18], in the data set on S5 cells [1], the EC50 stood at 1.5 µM and the Emax is 25%.

Turning to `CN(C)CC/C=C1\c2ccccc2Sc2ccc(Cl)cc21` [Compound 19], in the data set with S5 cells [1], the EC50 amounted to 2 µM and the Emax worked out at 30%.

With `CN(C)CCCN1c2ccccc2Sc2ccc(Cl)cc21` [Compound 20], in the data set on S5 cells [1], the EC50 turned out to be 1 µM and the Emax stood at 35%. Also, the “highest concentration at which there is no apparent cell toxicity” value in the data set on S5 cells [2] came out at 4 µM.

`CN1CCC(OC(c2ccccc2)c2ccccc2)CC1` [Compound 21]: the Emax in the data set with S5 cells [1] was determined as 55%.

Regarding `O=C(CCCN1CC=C(n2c(=O)[nH]c3ccccc32)CC1)c1ccc(F)cc1` [Compound 22], in the data set with S5 cells [1], the Emax came out at 50%.

In the case of `CCN1CCCC(OC(=O)C(c2ccccc2)c2ccccc2)C1` (centres unmarked) [Compound 23], the Emax in the data set with S5 cells [1] was determined as 50%.

`CN1Cc2c(N)cccc2C(c2ccccc2)C1` (centres unmarked) [Compound 24]: the Emax in the data set on S5 cells [1] came out at 35%.

Take `COC(=O)[C@H](c1ccccc1Cl)N1CCc2sccc2C1` [Compound 25]: in the data set on S5 cells [1], the EC50 turned out to be 7 µM and the Emax is 100%.

For the compound `Cc1nc2sccn2c(=O)c1CCN1CCC(=C(c2ccc(F)cc2)c2ccc(F)cc2)CC1` [Compound 27], in the data set on S5 cells [1], the Emax amounted to 80%.

On to `O=C(CCCN1CCC2(CC1)C(=O)NCN2c1ccccc1)c1ccc(F)cc1` [Compound 29], for which the Emax in the data set on S5 cells [1] worked out at 140%.

Regarding `COc1ccc(S(=O)(=O)Nc2ccccc2CN(C)CC=Cc2ccc(Cl)cc2)cc1` [KN-92, 2-[N-(4-Methoxybenzenesulfonyl)] amino-N-(4-chlorocinnamyl)-N-methylbenzylamine, reference compound], in the data set with S5 cells [1] (setting [4]), the “growth of S5 cells” value was “did not affect the growth of S5 cells”.

Consider `COc1ccc(S(=O)(=O)N(CCO)c2ccccc2CN(C)CC=Cc2ccc(Cl)cc2)cc1` [KN-93, reference compound], for which the “growth of S5 cells” value in the data set on S5 cells [1] (setting [4]) is listed as “improved the growth of S5 cells”.

The values above are taken from US8188070B2, “Method of treating neurological diseases and disorders” (The Trustees of the University of Pennsylvania, priority 2002, dated 2012).
